Assay results: paper PMC9243172 (Heliyon, 2022)

Legend:
P-gp = P-gp (Homo sapiens, UniProt P08183); test: Rhodamine-123 permeability across Caco-2 cell monolayers; conditions: Caco-2, pH 7.4
[1] = Pharmacokinetic interaction of Triphala extract with midazolam in rats; conditions: for k el: Kel; for half-life: T1/2, rats
CYP2D6 = CYP2D6 (Homo sapiens, UniProt P10635); test: Inhibition of CYP2D6; assay type: biochemical
CYP1A2 = target: T1, CYP1A2 (Homo sapiens, UniProt P05177); test: Inhibition of CYP1A2; assay type: biochemical
T1 sequence (P05177 1-516): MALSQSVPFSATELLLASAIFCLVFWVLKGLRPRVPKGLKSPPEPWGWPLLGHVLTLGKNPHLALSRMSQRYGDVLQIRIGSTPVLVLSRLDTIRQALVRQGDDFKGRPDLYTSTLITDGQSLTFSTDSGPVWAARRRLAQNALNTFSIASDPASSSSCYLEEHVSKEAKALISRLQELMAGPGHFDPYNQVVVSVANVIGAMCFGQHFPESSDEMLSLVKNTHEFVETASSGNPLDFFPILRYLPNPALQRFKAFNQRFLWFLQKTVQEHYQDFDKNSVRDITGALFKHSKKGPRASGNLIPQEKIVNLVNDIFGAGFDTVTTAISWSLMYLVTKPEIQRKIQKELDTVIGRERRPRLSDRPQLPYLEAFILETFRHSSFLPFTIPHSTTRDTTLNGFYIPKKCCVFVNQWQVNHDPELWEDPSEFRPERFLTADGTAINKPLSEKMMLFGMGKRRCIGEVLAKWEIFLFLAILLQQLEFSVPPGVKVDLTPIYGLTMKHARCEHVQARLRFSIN

CYP2C9 = CYP2C9 (Homo sapiens, UniProt P11712); test: Inhibition of CYP2C9
[2] = Pharmacokinetic interaction of Triphala extract with phenacetin in rats; conditions: for k el: Kel; for half-life: T1/2, rats
CYP3A4 = CYP3A4 (Homo sapiens, UniProt P08684); test: Inhibition of CYP3A4; assay type: biochemical
[3] = male, Wistar, rat, plasma, iv, 5 mg/kg, rats, midazolam 5 mg/kg iv, control (midazolam alone)
[4] = male, Wistar, rat, plasma, po, 20 mg/kg, rats, midazolam 20 mg/kg oral, control (midazolam alone)
[5] = rats, midazolam 20 mg/kg oral, control (midazolam alone)
[6] = rats, oral co-administration of Triphala 500 mg/kg, vs control
[7] = male, Wistar, rat, plasma, iv, 5 mg/kg, rats, phenacetin 5 mg/kg iv, control (phenacetin alone)
[8] = male, Wistar, rat, plasma, po, 30 mg/kg, rats, phenacetin 30 mg/kg oral, control (phenacetin alone)
[9] = rats, phenacetin 30 mg/kg oral, control (phenacetin alone)

Sequence of P-gp (P08183 whole entry): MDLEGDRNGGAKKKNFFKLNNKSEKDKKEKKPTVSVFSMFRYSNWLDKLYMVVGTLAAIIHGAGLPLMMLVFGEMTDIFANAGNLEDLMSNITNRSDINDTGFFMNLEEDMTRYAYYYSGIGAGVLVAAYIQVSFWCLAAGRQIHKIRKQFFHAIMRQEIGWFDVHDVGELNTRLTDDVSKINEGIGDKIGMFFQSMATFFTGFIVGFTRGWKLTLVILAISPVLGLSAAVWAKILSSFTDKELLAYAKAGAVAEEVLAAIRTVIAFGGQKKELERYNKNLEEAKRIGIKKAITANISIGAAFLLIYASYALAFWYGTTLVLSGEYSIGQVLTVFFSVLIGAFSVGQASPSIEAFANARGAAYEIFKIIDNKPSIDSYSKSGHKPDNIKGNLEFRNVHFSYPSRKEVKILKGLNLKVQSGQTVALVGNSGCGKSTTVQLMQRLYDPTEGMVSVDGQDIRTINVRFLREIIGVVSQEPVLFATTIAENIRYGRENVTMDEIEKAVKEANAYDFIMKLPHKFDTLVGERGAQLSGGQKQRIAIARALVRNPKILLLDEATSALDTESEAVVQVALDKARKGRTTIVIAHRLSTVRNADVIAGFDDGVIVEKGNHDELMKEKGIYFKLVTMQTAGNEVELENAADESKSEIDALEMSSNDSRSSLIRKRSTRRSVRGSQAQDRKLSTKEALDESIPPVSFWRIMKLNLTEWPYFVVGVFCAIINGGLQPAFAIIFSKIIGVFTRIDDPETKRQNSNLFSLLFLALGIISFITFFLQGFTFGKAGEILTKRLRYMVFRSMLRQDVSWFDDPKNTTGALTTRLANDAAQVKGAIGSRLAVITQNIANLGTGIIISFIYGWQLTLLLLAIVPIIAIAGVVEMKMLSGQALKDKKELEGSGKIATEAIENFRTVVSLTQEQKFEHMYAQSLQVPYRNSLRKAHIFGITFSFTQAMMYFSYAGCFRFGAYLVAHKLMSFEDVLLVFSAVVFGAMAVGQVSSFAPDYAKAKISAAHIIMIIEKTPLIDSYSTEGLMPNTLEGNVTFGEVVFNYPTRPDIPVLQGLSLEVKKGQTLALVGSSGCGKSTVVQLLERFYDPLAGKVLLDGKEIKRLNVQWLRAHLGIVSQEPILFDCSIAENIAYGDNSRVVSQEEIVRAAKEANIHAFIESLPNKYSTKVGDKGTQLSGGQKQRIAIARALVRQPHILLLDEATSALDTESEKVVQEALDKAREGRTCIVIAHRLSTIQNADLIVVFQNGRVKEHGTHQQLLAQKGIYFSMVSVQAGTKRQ
Sequence of CYP2D6 (P10635 whole entry): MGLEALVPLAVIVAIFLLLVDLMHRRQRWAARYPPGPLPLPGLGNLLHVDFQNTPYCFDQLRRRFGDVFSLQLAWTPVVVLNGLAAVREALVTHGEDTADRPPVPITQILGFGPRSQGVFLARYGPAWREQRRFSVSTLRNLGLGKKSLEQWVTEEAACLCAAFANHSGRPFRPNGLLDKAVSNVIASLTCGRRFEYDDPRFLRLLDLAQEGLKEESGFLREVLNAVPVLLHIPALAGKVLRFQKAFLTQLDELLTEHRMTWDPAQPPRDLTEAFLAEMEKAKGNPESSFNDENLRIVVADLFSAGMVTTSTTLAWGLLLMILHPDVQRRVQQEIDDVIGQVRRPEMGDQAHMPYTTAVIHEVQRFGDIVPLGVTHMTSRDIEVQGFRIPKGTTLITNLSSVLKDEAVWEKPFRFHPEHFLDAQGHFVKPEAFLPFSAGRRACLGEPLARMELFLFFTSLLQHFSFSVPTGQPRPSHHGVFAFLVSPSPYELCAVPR
Sequence of CYP2C9 (P11712 whole entry): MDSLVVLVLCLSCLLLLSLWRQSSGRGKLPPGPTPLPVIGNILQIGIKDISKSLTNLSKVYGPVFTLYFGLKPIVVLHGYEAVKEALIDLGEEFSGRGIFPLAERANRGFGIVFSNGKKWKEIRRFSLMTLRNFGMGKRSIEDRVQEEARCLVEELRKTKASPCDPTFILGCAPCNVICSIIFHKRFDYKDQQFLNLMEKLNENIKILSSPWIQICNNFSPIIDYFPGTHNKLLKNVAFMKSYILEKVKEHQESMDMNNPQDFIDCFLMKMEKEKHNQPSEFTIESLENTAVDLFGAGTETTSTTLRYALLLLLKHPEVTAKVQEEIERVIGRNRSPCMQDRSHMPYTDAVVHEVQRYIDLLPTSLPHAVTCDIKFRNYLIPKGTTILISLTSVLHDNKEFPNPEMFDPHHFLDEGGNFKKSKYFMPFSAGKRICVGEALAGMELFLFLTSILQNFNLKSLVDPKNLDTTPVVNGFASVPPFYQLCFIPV
Sequence of CYP3A4 (P08684 whole entry): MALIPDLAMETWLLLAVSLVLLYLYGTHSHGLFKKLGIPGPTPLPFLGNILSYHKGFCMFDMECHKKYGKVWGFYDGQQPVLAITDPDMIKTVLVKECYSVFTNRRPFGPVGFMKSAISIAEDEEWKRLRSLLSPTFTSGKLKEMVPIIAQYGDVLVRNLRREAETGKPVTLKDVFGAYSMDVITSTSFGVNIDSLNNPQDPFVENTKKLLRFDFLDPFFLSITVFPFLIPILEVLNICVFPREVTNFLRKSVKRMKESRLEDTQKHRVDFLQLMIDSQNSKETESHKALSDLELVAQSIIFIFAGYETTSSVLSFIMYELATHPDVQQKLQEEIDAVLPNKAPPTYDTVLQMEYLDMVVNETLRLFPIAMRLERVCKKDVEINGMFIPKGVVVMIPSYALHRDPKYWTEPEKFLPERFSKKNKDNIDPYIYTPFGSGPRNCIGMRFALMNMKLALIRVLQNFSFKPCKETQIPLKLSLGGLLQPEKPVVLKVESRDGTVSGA

## COC(=O)c1ccccc1-c1c2ccc(=N)cc-2oc2cc(N)ccc12 [Rhodamine 123, rhodamine-123]
P-gp
  Papp A→B at 120 min, 2.5 μg/mL: 64 ± 10 ×10⁻⁶ cm/s
  Papp B→A at 120 min, 2.5 μg/mL: 190 ± 3 ×10⁻⁶ cm/s
  efflux ratio at 120 min, 2.5 μg/mL: 3.2 ± 0.5

## Cc1ncc2n1-c1ccc(Cl)cc1C(c1ccccc1F)=NC2 [midazolam]
[1]; [3]
  AUC: 670 ± 270 ng·h/mL
  Cmax: 910 ± 130 ng/mL
  k el: 0.00015 s⁻¹
  MRT: 64.8 ± 27.6 min
[1]; male, Wistar, rat, plasma, iv, 5 mg/kg, CLtot, rats, midazolam 5 mg/kg iv, control (midazolam alone)
  clearance: 83.5 mL/min
[1]; male, Wistar, rat, plasma, iv, 5 mg/kg, midazolam 5 mg/kg iv, control (midazolam alone)
  half-life: 58.8 ± 23.4 min
[1]; [4]
  AUC: 1070 ± 70 ng·h/mL
  Cmax: 950 ± 130 ng/mL
  k el: 0.000194 s⁻¹
  MRT: 88.8 ± 14.4 min
[1]; male, Wistar, rat, plasma, po, 20 mg/kg, midazolam 20 mg/kg oral, control (midazolam alone)
  half-life: 63.6 ± 11.4 min
[1]; male, Wistar, rat, plasma, po, 20 mg/kg, Tmax, rats, midazolam 20 mg/kg oral, control (midazolam alone)
  Tmax: 22.8 ± 2.4 min
[1]; rats, midazolam 5 mg/kg iv, control (midazolam alone)
  Vdss: 7.44 ± 4.0 L/h
[1]; [5]
  CLtot/F: 18.89 ± 1.08 L/h
  Vdss/F: 28.05 ± 4.9 L/h
[1]; [6]
  Increase of bioavailability of midazolam: ~40.7%

## O=C(O)c1cc(O)c(O)c(O)c1 [Gallic acid]
CYP2D6
  IC50: 265 µM
CYP1A2
  IC50: 89.9 µM
CYP2C9
  IC50: 338 µM

## CCOc1ccc(NC(C)=O)cc1 [phenacetin]
[2]; male, Wistar, rat, plasma, iv, 5 mg/kg, AUC0-t, rats, phenacetin 5 mg/kg iv, control (phenacetin alone)
  AUC(0-t): 1770 ± 190 ng·h/mL
[2]; male, Wistar, rat, plasma, iv, 5 mg/kg, CLtot, rats, phenacetin 5 mg/kg iv, control (phenacetin alone)
  clearance: 48.3 mL/min
[2]; male, Wistar, rat, plasma, iv, 5 mg/kg, Cmax, rats, phenacetin 5 mg/kg iv, control (phenacetin alone)
  Cmax: 3650 ± 390 ng/mL
[2]; [7]
  k el: 0.000728 s⁻¹
  MRT: 21 ± 1.2 min
[2]; male, Wistar, rat, plasma, iv, 5 mg/kg, phenacetin 5 mg/kg iv, control (phenacetin alone)
  half-life: 16.2 ± 1.2 min
[2]; [8]
  k el: 0.000206 s⁻¹
  MRT: 79.2 ± 12 min
[2]; male, Wistar, rat, plasma, po, 30 mg/kg, phenacetin 30 mg/kg oral, control (phenacetin alone)
  half-life: 58.8 ± 7.2 min
[2]; male, Wistar, rat, plasma, po, 30 mg/kg, Tmax, rats, phenacetin 30 mg/kg oral, control (phenacetin alone)
  Tmax: 19.8 ± 6 min
[2]; rats, oral Triphala extract 100 mg/kg
  Enhancement of bioavailability (F) of phenacetin compared with control: approximately 1.2 fold
[2]; rats, oral Triphala extract 500 mg/kg
  Enhancement of bioavailability (F) of phenacetin compared with control: ~1.6 fold
[2]; [6]
  Increase of bioavailability of phenacetin: about 61.2%
[2]; rats, phenacetin 5 mg/kg iv, control (phenacetin alone)
  Vdss: 1.02 ± 0.1 L/h
[2]; rats, phenacetin 5 mg/kg iv, oral Triphala extract 100 mg/kg
  Vdss: 1.26 ± 0.2 L/h
[2]; rats, phenacetin 5 mg/kg iv, oral Triphala extract 500 mg/kg
  Vdss: 0.93 ± 0.1 L/h
[2]; [9]
  CLtot/F: 7.74 ± 2.63 L/h
  Cmax: 3310 ± 670 ng/mL
  Vdss/F: 9.06 ± 1.9 L/h

## O=c1oc2c(O)c(O)cc3c(=O)oc4c(O)c(O)cc1c4c23 [Ellagic acid]
CYP3A4
  IC50: 23.2 µM
CYP2D6
  IC50: 42.4 µM
CYP1A2
  IC50: 12.6 µM
CYP2C9
  IC50: 27.1 µM
